A short description of series [1]: Log P of drug. It counts as physicochemical. Conditions: octanol/water. The source says: The first property of hydrophobic drugs is that they are extremely hydrophobic. Log P, defined as the base 10 logarithm of the ratio of the drug solubility in octanol to the drug solubility in water, is a widely accepted measure of hydrophobicity. By “extremely hydrophobic” is meant that the Log P value of the drug is at least 4.0, preferably at least 4.5, and most preferably at least 5.0. Log P may be measured experimentally or calculated using methods known in the art. When using a calculated value for Log P, the highest value calculated using any generally accepted method for calculating Log P is used. Calculated Log P values are often referred to by the calculation method, such as Clog P, Alog P, and Mlog P. The Log P may also be estimated using fragmentation methods, such as Crippen's fragmentation method (27 J. Chem. Inf. Comput. Sci. 21 (1987)); Viswanadhan's fragmentation method (29 J. Chem. Inf. Comput. Sci. 163 (1989)); or Broto's fragmentation method (19 Eur. J. Med. Chem.-Chim. Theor. 71 (1984). Preferably the Log P value is calculated by using the average value estimated using Crippen's, Viswanadhan's, and Broto's fragmentation methods.

A short description of series [2]: Solubility of drug in water. It counts as physicochemical.
Series [3] in a line: Solubility in model fasted duodenal (MFD) solution. It counts as physicochemical. The settings on record: fassgf or other biorelevant, PBS containing 7.3 mM sodium taurocholic acid and 1.4 mM 1-palmitoyl-2-oleyl-sn-glycero-3-phosphocholine.
The procedure of series [4]:
The polymer is a poorly aqueous soluble non-ionizable polymer. […] An appropriate PBS solution is an aqueous solution consisting of 20 mM sodium phosphate (Na2HPO4), 47 mM potassium phosphate (KH2PO4), 87 mM NaCl, and 0.2 mM KCl, adjusted to pH 6.5 with NaOH. A test to determine whether the polymer is poorly aqueous soluble may be performed as follows. The polymer is initially present in bulk powder form with average particle sizes of greater than about 1 micron. The polymer alone is administered at a concentration of 0.2 mg/mL to the PBS solution and stirred for approximately 1 hour at room temperature. Next, a nylon 0.45 μm filter is weighed, and the polymer solution is filtered. The filter is dried overnight at 40° C., and weighed the following morning. The amount of polymer dissolved is calculated from the amount of polymer added to the PBS solution minus the amount of polymer remaining on the filter (mg). […] First, 0.2 mg/mL of the polymer was added to a PBS solution consisting of 20 mM Na2HPO4, 47 mM KH2PO4, 87 mM NaCl, and 0.2 mM KCl, adjusted to pH 6.5 with NaOH. The polymer was stirred in the PBS solution for approximately 1 hour at room temperature. […] The amount of soluble polymer was calculated from the amount of polymer added to form the polymer solution minus the amount of polymer remaining on the filter.

Converted amounts (≈) assume the structure as drawn.

From patent US20100266692A1, “NANOPARTICLES COMPRISING A NON-IONIZABLE POLYMER AND AN ANIONIC CELLULOSIC POLYMER” (priority 2007, published 2010) come the findings set out here.

Turning to `Cc1onc(-c2ccccc2)c1-c1ccc(S(N)(=O)=O)cc1` [Drug 1, 4-(5-methyl-3-phenyl-4-isoxazolyl) benzenesulfonamide, reference compound], the logP (in general, a log measure of how a compound divides between an organic and an aqueous phase) in series [1] was about 3. The solubility – broadly, the concentration that dissolves in the medium under given conditions – in series [2] was about 10 µg/mL (≈ 31.8 µM).

On to `CC[C@@H]1C[C@H](N(Cc2cc(C(F)(F)F)cc(C(F)(F)F)c2)C(C)=O)c2cc(C(F)(F)F)ccc2N1C(=O)OC(C)C` [Drug 2, [2R,4S]-4-[acetyl-(3,5-bis-trifluoromethyl-benzyl)-amino]-2-ethyl-6-trifluoromethyl-3,4-dihydro-2H-quinoline-1-carboxylic acid isopropyl ester], for which the logP in series [1] is 6.7. In series [2], this molecule came in with a solubility of under 1 µg/mL.

Molecule `Cc1ccc(-c2cc(C(F)(F)F)nn2-c2ccc(S(N)(=O)=O)cc2)cc1` [Drug 3, 4-[5-(4-methylphenyl)-3-(trifluoromethyl)-1H-pyrazol-1-yl]benzenesulfonamide] gave a solubility in series [3] of about 40 µg/mL (≈ 105 µM).

As for cellulose acetate, the “Amount Soluble at pH 6.5” value in series [4] came out at 0.03 mg/mL.

Regarding ethylcellulose, in series [4], the “Amount Soluble at pH 6.5” value is given as under 0.001 mg/mL.
